This passage reports EC50 results from patent publication US12655125B2 (SIRONAX LTD., priority 2020, dated 2026).

Molecules are shown by their SMILES.

In the first assay the test system is HT-29 cells. As to the kind of experiment: HT29 Cells 0FBS Assay In Vitro (TNF-α/SMAC mimetic/zVAD-FMK induced necroptosis, CellTiter-Glo cell viability). To be noted: Homo sapiens; HT-29 cells, FBS free medium, TNF-α (10 ng/ml), SMAC mimetic (6 uM), zVAD-FMK (10 μM), 20 hours; geometric mean EC50; read-out: Cell activity (EC50) of Compounds 1-116. The assay is classed as cell-based. An excerpt: Protocol for HT29 Cells 0FBS Assay In Vitro
• Cell line: HT-29 (ATCC® HTB-38™) • Culture medium: McCOY's 5 A, Gibco, Cat No. 16600-082 • FBS, Gibco, Cat No. 10099-141C • Trypsin: Gibco, Cat No. 25200-056 • DMSO: Sigma, Cat No. 67-68-5, 1 L • Assay plate: Corning #3903 • Compound dilution plate: Corning #3357 • Inducers: TNFα, GenScript, Cat No. ZO1001-50, • SmacM, Cat. No., HY-15989, MedChemExpress (MCE) • Z_VAD FMK, TargetMol, T6013 • Cell Titer-Glo® Luminescent Cell Viability Assay Kit: Promega, Cat No. G7573 • EnVision: PerkinElmer, 2105-0010 2. Cell Seeding of HT-29 Cells • 1) HT-29 cells were checked every day to make sure they are healthy and growing as expected. They were split sub-culturing when were approximately 80% confluent. • 2) First pre-warm the culture medium of McCOY's 5 A medium (Gibco, Cat No. 16600-082) with 10% FBS (Gibco, Cat No. 10099-141C) in 37° C. water bath for at least 30 min. • 3) Growing cells to desired level of confluency 80% in a T75 flask, aspirate the medium, and wash with warm PBS two times. • 4) Add 2-3 ml fresh warm trypsin (Gibco, Cat No. 25200-056) solution. Transfer the flask to a 37° C. incubator. • 5) After 5 minutes, tap the side of the flask, and examine the flask under a microscope for lifting. If necessary, return the cells to the incubator for an additional 5-10 minutes, with occasional tapping, until lifting is complete. • 6) Quickly neutralize the trypsin reaction by adding 6-9 ml cell culture medium, then transfer the cells to sterile 15 ml conical tubes. Pellet the cells by centrifugation at 300×g for 7 minutes, then decant the supernatant. • 7) Resuspend the cells in fresh cell culture medium. Do cell counting with hemocytometer. • 8) Seed 100 μl of 5,000 cells into each well of the sterile 96-well cell culture plate (Corning 3903) and culture overnight at 37° C. with 5% C02. 3. Compounds Titration and Treatment of HT-29 Cells • 1) All batches of compounds (CPDs) (e.g., compound 1-281) were dissolved in DMSO (Dimethyl sulfoxide) as 20 mM stock solution. • 2) Take 3 ul 20 mM stock solution of CPDs to 27 ul DMSO and mix well, continue the titration ratio of 1:3 (20 ul CPDs+40 ul DMSO), e.g., to give solutions of CPDS at 6.6 mM, 2.2 mM, etc., till the 10 points end. • 3) Take out assay plates with HT-29 cells from incubator, remove all culture medium then wash 1 time with 1×PBS, and change fresh McCOY's 5 A medium of FBS free with a cocktail of TNF-α (10 ng/ml), the SMAC mimetic (6 uM) and zVAD-FMK (10 μM) to stimulate the HT-29 cells to increase pRIPK1 levels and necroptosis. • 4) Add 0.5 μL of the diluted compound to the corresponding 96-well assay plates. • 5) Incubate the assay plates for 20 hours at 37° C. with 5% C02. 4. Performing Cell Viability Detection of HT-29 Cells after Treated with Compounds • 1) The CellTiter-Glo® Luminescent Cell Viability Assay was employed to detect the ATP levels of viable HT-29 cells. • 2) Equilibrate the CellTiter-Glo® buffer and the lyophilized substrate to room temperature prior to use. • 3) Resuspend the CellTiter-Glo® substrate with CellTiter-Glo® buffer, mix by gently vortexing to obtain a homogeneous solution. • 4) Pipette 20 μl the enzyme/substrate mixture by multi-channel pipette into the 96-well assay plates from step 5) under the Compounds titration and treatment stage. • 5) Place the plates on an orbital shaker and mix the contents for 3 minutes to induce cell lysis. • 6) Then allow the plates to incubate at room temperature for 10 minutes to stabilize luminescent signal. • 7) Read and record luminescence signal with EnVision. • 8) The geometric mean EC50 of the compounds were calculated from points response dose with duplicate. In Tables 2 and 4, activity is provided as follows: +++=0.1 nM≤EC50<100 nM; ++=100 nM≤EC50<1000 nM; +=1000 nM≤EC50<10000 nM.
Turning to `Cn1nccc1-c1ccc(F)c(OC2CN(C(=O)N3N=CC[C@H]3c3cc(F)cc(F)c3)C2)n1` (stereo in doubt) [compound 1, (5-(3,5-difluorophenyl)-4,5-dihydro-1H-pyrazol-1-yl)(3-((3-fluoro-6-(1-methyl-1H-pyrazol-5-yl)pyridin-2-yl)oxy)azetidin-1-yl)methanone], the EC50 was in the range of 0.1 to 100 nM. On the same count and under the same terms, next, `Cn1nccc1-c1ncc(F)c(OC2CN(C(=O)N3N=CC[C@H]3c3cc(F)cc(F)c3)C2)n1` [compound 2, (S)-(5-(3,5-difluorophenyl)-4,5-dihydro-1H-pyrazol-1-yl)(3-((5-fluoro-2-(1-methyl-1H-pyrazol-5-yl)pyrimidin-4-yl)oxy)azetidin-1-yl)methanone]: 0.1 to 100 nM; `Cn1nccc1-c1cc(OC2CN(C(=O)N3N=CC[C@H]3c3cc(F)cc(F)c3)C2)c(F)cn1` [compound 3, (S)-(5-(3,5-difluorophenyl)-4,5-dihydro-1H-pyrazol-1-yl)(3-((5-fluoro-2-(1-methyl-1H-pyrazol-5-yl)pyridin-4-yl)oxy)azetidin-1-yl)methanone]: 0.1 to 100 nM.

As to `CCn1nccc1-c1cc(OC2CN(C(=O)N3N=CC[C@H]3c3cc(F)cc(F)c3)C2)c(F)cn1` [compound 4, (S)-(5-(3,5-difluorophenyl)-4,5-dihydro-1H-pyrazol-1-yl)(3-((2-(1-ethyl-1H-pyrazol-5-yl)-5-fluoropyridin-4-yl)oxy)azetidin-1-yl)methanone], the EC50 is 0.1 to 100 nM. Same read-out and setting: the value for `Cn1ccnc1-c1ccc(F)c(OC2CN(C(=O)N3N=CC[C@H]3c3cc(F)cc(F)c3)C2)n1` [compound 5, (S)-(5-(3,5-difluorophenyl)-4,5-dihydro-1H-pyrazol-1-yl)(3-((3-fluoro-6-(1-methyl-1H-imidazol-2-yl)pyridin-2-yl)oxy)azetidin-1-yl)methanone] was 0.1 to 100 nM; that for `Cn1cncc1-c1ccc(F)c(OC2CN(C(=O)N3N=CC[C@H]3c3cc(F)cc(F)c3)C2)n1` [compound 6, (S)-(5-(3,5-difluorophenyl)-4,5-dihydro-1H-pyrazol-1-yl)(3-((3-fluoro-6-(1-methyl-1H-imidazol-5-yl)pyridin-2-yl)oxy)azetidin-1-yl)methanone] was 0.1 to 100 nM.

As to `Cn1cncc1-c1cc(OC2CN(C(=O)N3N=CC[C@H]3c3cc(F)cc(F)c3)C2)c(F)cn1` [compound 7, (S)-(5-(3,5-difluorophenyl)-4,5-dihydro-1H-pyrazol-1-yl)(3-((5-fluoro-2-(1-methyl-1H-imidazol-5-yl)pyridin-4-yl)oxy)azetidin-1-yl)methanone], the EC50 lay within 0.1 to 100 nM. On the same count and under the same terms, next, `Cn1cncc1-c1ncc(F)c(OC2CN(C(=O)N3N=CC[C@H]3c3cc(F)cc(F)c3)C2)n1` [compound 8, (S)-(5-(3,5-difluorophenyl)-4,5-dihydro-1H-pyrazol-1-yl)(3-((5-fluoro-2-(1-methyl-1H-imidazol-5-yl)pyrimidin-4-yl)oxy)azetidin-1-yl)methanone]: 0.1 to 100 nM. The same measure, in the same setting: next, `Cc1ncsc1-c1ncc(F)c(OC2CN(C(=O)N3N=CC[C@H]3c3cc(F)cc(F)c3)C2)n1` [compound 9, (S)-(5-(3,5-difluorophenyl)-4,5-dihydro-1H-pyrazol-1-yl)(3-((5-fluoro-2-(4-methylthiazol-5-yl)pyrimidin-4-yl)oxy)azetidin-1-yl)methanone]: 0.1 to 100 nM; `Cc1ncsc1-c1ccc(F)c(OC2CN(C(=O)N3N=CC[C@H]3c3cc(F)cc(F)c3)C2)n1` [compound 10, (S)-(5-(3,5-difluorophenyl)-4,5-dihydro-1H-pyrazol-1-yl)(3-((3-fluoro-6-(4-methylthiazol-5-yl)pyridin-2-yl)oxy)azetidin-1-yl)methanone]: 0.1 to 100 nM; `Cc1ncsc1-c1cc(OC2CN(C(=O)N3N=CC[C@H]3c3cc(F)cc(F)c3)C2)c(F)cn1` [compound 11, (S)-(5-(3,5-difluorophenyl)-4,5-dihydro-1H-pyrazol-1-yl)(3-((5-fluoro-2-(4-methylthiazol-5-yl)pyridin-4-yl)oxy)azetidin-1-yl)methanone]: 0.1 to 100 nM. The same measure, in the same setting: the value for `Cc1scnc1-c1ncc(F)c(OC2CN(C(=O)N3N=CC[C@H]3c3cc(F)cc(F)c3)C2)n1` [compound 12, (S)-(5-(3,5-difluorophenyl)-4,5-dihydro-1H-pyrazol-1-yl)(3-((5-fluoro-2-(5-methylthiazol-4-yl)pyrimidin-4-yl)oxy)azetidin-1-yl)methanone] was 0.1 to 100 nM; that for `Cc1scnc1-c1ccc(F)c(OC2CN(C(=O)N3N=CC[C@H]3c3cc(F)cc(F)c3)C2)n1` [compound 13, (S)-(5-(3,5-difluorophenyl)-4,5-dihydro-1H-pyrazol-1-yl)(3-((3-fluoro-6-(5-methylthiazol-4-yl)pyridin-2-yl)oxy)azetidin-1-yl)methanone] was 0.1 to 100 nM.

Turning to `Cc1scnc1-c1cc(OC2CN(C(=O)N3N=CC[C@H]3c3cc(F)cc(F)c3)C2)c(F)cn1` [compound 14, (S)-(5-(3,5-difluorophenyl)-4,5-dihydro-1H-pyrazol-1-yl)(3-((5-fluoro-2-(5-methylthiazol-4-yl)pyridin-4-yl)oxy)azetidin-1-yl)methanone], the EC50 lay in the range of 0.1 to 100 nM. Regarding `Cc1nscc1-c1ncc(F)c(OC2CN(C(=O)N3N=CC[C@H]3c3cc(F)cc(F)c3)C2)n1` [compound 15, (S)-(5-(3,5-difluorophenyl)-4,5-dihydro-1H-pyrazol-1-yl)(3-((5-fluoro-2-(3-methylisothiazol-4-yl)pyrimidin-4-yl)oxy)azetidin-1-yl)methanone], the EC50 is 0.1 to 100 nM. On the same count and under the same terms, next, `Cc1nscc1-c1ccc(F)c(OC2CN(C(=O)N3N=CC[C@H]3c3cc(F)cc(F)c3)C2)n1` [compound 16, (S)-(5-(3,5-difluorophenyl)-4,5-dihydro-1H-pyrazol-1-yl)(3-((3-fluoro-6-(3-methylisothiazol-4-yl)pyridin-2-yl)oxy)azetidin-1-yl)methanone]: 0.1 to 100 nM; `Cc1nscc1-c1cc(OC2CN(C(=O)N3N=CC[C@H]3c3cc(F)cc(F)c3)C2)c(F)cn1` [compound 17, (S)-(5-(3,5-difluorophenyl)-4,5-dihydro-1H-pyrazol-1-yl)(3-((5-fluoro-2-(3-methylisothiazol-4-yl)pyridin-4-yl)oxy)azetidin-1-yl)methanone]: 0.1 to 100 nM; `Cc1csnc1-c1ncc(F)c(OC2CN(C(=O)N3N=CC[C@H]3c3cc(F)cc(F)c3)C2)n1` [compound 18, (S)-(5-(3,5-difluorophenyl)-4,5-dihydro-1H-pyrazol-1-yl)(3-((5-fluoro-2-(4-methylisothiazol-3-yl)pyrimidin-4-yl)oxy)azetidin-1-yl)methanone]: 0.1 to 100 nM.

Staying with this assay, now noted: Homo sapiens; HT-29 cells, FBS free medium, TNF-α (10 ng/ml), SMAC mimetic (6 uM), zVAD-FMK (10 μM), 20 hours; geometric mean EC50; read-out: Cell activity (EC50) of Compounds 117-281.
With `Cc1c([S+](C)[O-])nn(C)c1-c1cc(OC2CN(C(=O)N3N=CC[C@H]3c3cc(F)cc(F)c3)C2)c(F)cn1` (stereo in doubt) [compound 178, (5-(3,5-difluorophenyl)-4,5-dihydro-1H-pyrazol-1-yl)(3-((2-(1,4-dimethyl-3-(methylsulfinyl)-1H-pyrazol-5-yl)-5-fluoropyridin-4-yl)oxy)azetidin-1-yl)methanone], the EC50 fell in the range of 0.1 to 100 nM.

For orientation: EC50 means the concentration that produces a half-maximal response.
